Test results from patent US20170224731A1, “METHOD OF PRODUCING LEUKOCYTES USING PTPN2 INHIBITION FOR ADOPTIVE CELL TRANSFER” (MONASH UNIVERSITY, priority 2014, published 2017).

Key:
murine CD8+ T cells = experiment: PTPN2 siRNA knock down in splenocytes, CD8+ T cell numbers after α-CD3/α-CD28 stimulation (FIG. 17); assay type: cell-based, C57BL/6 mice; details: 30 nM, 100 nM and 300 nM siRNA, α-CD3/α-CD28 (5 μg/ml each) for 48 h, versus GFP siRNA
Description: FIG. 17. Knock down of PTPN2 using siRNAs in murine CD8+ T cells leads to enhanced TCR-mediated T cell responses. Splenocytes (1×10^7) from C57BL/6 mice were transfected overnight with 100 nM GFP siRNA or 30 nM, 100 nM and 300 nM PTPN2 siRNA or 30 nM BLOCK-iT™ Fluorescent Oligo using the Amaxa Mouse T cell Nucleofactor Kit. (A) Transfection efficiency of CD8^+ T cells was monitored with BLOCK-iT™ Fluorescent Oligo (Fluor.Oligo) by flow cytometry. (B) Transfected splenocytes were stimulated with plate-bound α-CD3 (5 μg/ml) and α-CD28 (5 μg/ml) for 48 h and stained with fluorochrome-conjugated α-CD8. CD8^+ T cell numbers were quantified with Calibrite Beads™ by flow cytometry. Results shown are means±SD for the indicated number of replicates.
Ptpn2 was knocked down transiently in primary murine T cells using Ptpn2 ([…], SEQ ID NO: 14); Dharmacon Thermo Scientific, Waltham, Mass.); green fluorescent protein (GFP; CAAGCUGACCCUGAAGUUCdTdT; Dharmacon Thermo Scientific, Waltham, Mass.) siRNA was used as a control. […] T cell numbers were monitored by flow cytometry. For quantification Calibrite Beads (BD Biosciences) were added to the wells before cells were harvested.
Splenocytes (1×10^7) from C57BL/6 mice were transfected overnight with 100 nM GFP siRNA or 30 nM, 100 nM and 300 nM PTPN2 siRNA using the Amaxa Mouse T cell Nucleofactor Kit. […] CD8+ T cell numbers were quantified by flow cytometry. […]

[1] = test system: CD8+ naïve (CD62LhiCD44lo) splenic T cells; experiment: Activation of naive CD8+ splenic T cells with plate-bound αCD3/CD28, surface markers by flow cytometry (FIG. 11); assay type: cell-based, C57BL/6 mice; details: plate-bound αCD3/CD28 for 48 h, versus vehicle
Excerpt: FIG. 11. […] T cells were stained with fluorochrome-conjugated antibodies to assess CD44, CD62L, IL-2Ra (CD25 subunit) and CD69 surface levels and mean fluorescence intensity (MFI) was monitored by flow cytometry.
T cells were stained with fluorochrome-conjugated antibodies to assess CD44, CD62L, IL-2Rα (CD25 subunit) and CD69 surface levels and mean fluorescence intensity (MFI) was monitored by flow cytometry.

[2] = test system: CD8+ human blood lymphocytes; experiment: Human PBMC stimulation with plate-bound α-CD3, T cell activation (CD69, CD154) by flow cytometry (FIG. 16); assay type: cell-based; details: human PBMCs, plate-bound α-CD3 (1.25 and 2.5 μg/ml) for 24 h
Description: FIG. 16. […] Freshly isolated human PBMCs (2×10^6) were stimulated with plate-bound α-CD3 (1.25 and 2.5 μg/ml) for 24 h. PBMCs were harvested and stained with fluorochrome-conjugated antibodies for CD45RA, CD8, CD69 and CD154 and T cell activation was monitored by flow cytometry. Representative CD8 versus CD69 and CD154 plots (numbers in outlined areas are the relative numbers in the gate) are shown.
(§1) Human blood was collected in 15 ml glass tubes containing Ficoll® gradient (GE Healthcare Life Sciences, Amersham, UK). Peripheral blood […] (PBMCs) were recovered by centrifugation (2200×rpm, 20 min at room temperature). PBMCs were incubated with PTPN2 inhibitor (compound 8) in serum-free RPMI 1640 for two hours at 37° C. and stimulated with plate-bound human α-CD3 (5 μg/ml; clone OKT-3) for 24 h. Cells were harvested and stained with fluorochrome-conjugated antibodies against α-CD8, α-CD45RA, α-CD154 and α-CD69 and analysed by flow cytometry to determine their activation status. To monitor T cells proliferation Calibrite Beads™ were added to the wells before cells were harvested.
Freshly isolated human PBMCs (2×10^6) were stimulated with plate-bound α-CD3 (1.25 and 2.5 μg/ml) for 24 h. PBMCs were harvested and stained with fluorochrome-conjugated antibodies for CD45RA, CD8, CD69 and CD154 and T cell activation was monitored by flow cytometry. […]

[3] = test system: CD8+ human blood lymphocytes; experiment: Human PBMC stimulation with plate-bound α-CD3, CD8+ T cell proliferation by flow cytometry with Calibrite Beads (FIG. 19); assay type: cell-based; details: human PBMCs, plate-bound α-CD3 for 48 h and 72 h, versus vehicle control
Description: FIG. 19. […] Freshly isolated human PBMCs (2×10^6) were stimulated with plate-bound α-CD3 for (A) 48 h and (B) 72 h, in the presence of vehicle control or the PTPN2 inhibitor, compound 8 (as described herein). PBMCs were harvested and stained with fluorochrome-conjugated α-CD8. Calibrite Beads™ were added and T cell proliferation was monitored by flow cytometry. Results shown are means±SD for the indicated number of replicates.
as §1
Freshly isolated human PBMCs (2×10^6) were stimulated with plate-bound α-CD3 for (A) 48 h and (B) 72 h, in the presence of vehicle control or the PTPN2 inhibitor, compound 8 (as described herein). […] Calibrite Beads™ were added and T cell proliferation was monitored by flow cytometry. […]

[4] = test system: Naive (CD62LhiCD44lo) CD8+ LN T cells; experiment: Stimulation of naive CD8+ LN T cells with anti-CD3/anti-CD28 ± PTPN2 inhibitor, MFI by flow cytometry (FIG. 14); assay type: cell-based, C57BL/6 mice; details: anti-CD3 (5 μg/ml) and anti-CD28 (5 μg/ml) for 60 h, inhibitor at various concentrations
Description: FIG. 14. […] Naive (CD62LhiCD44lo) CD8+ LN T cells (1×105) from C57BL/6 mice were stimulated with plate-bound anti-CD3 (5μg/ml) and anti-CD28 (5μg/m1) for 60 h±PTPN2 inhibitor at various concentrations. Cells were harvested and stained with fluorochrome-conjugated antibodies for CD44, CD69, CD25 and CD62L and mean fluorescence intensity (MFI) analyzed by flow cytometry. Results shown are means±SD for the indicated number of replicates.
CD8^+CD62L^hiCD44^lo naïve LN T cells (1×10^5/well) were stimulated in 96-well round-bottom plates with plate-bound α-CD3 (5 μg/ml) and a-CD28 (5 μg/ml) for 60 h. PTPN2 inhibitor was added twice daily to the culture. To determine the activation status cells were harvested, stained with fluorochrome-conjugated antibodies against α-CD25, α-CD44, α-CD62L and α-CD69 and analysed by flow cytometry.
In FIG. 14, the results of naive)(CD62L^hiCD44^loCD8+ LN T cells (1×105) from C57BL/6 mice that were stimulated with plate-bound anti-CD3 (5 μg/ml) and anti-CD28 (5 μg/ml) for 60 h±PTPN2 inhibitor (compound 8) at various concentrations is shown. Cells were harvested and stained with fluorochrome-conjugated antibodies for CD44, CD69, CD25 and CD62L and mean fluorescence intensity (MFI) analyzed by flow cytometry. Results shown are means±SD for the indicated number of replicates.

[5] = test system: Her-2 specific CAR T cells; experiment: Her-2-specific CAR T cells incubated with 24JK-Her-2 sarcoma cells, secreted IFNγ by ELISA (FIG. 20); assay type: cell-based, mouse; details: with 24JK-Her-2, 24JK or medium alone, versus vehicle control
Description: FIG. 20. […] Her-2-specific CAR T cells were incubated with Her-2 expressing 24JK sarcoma cells (24JK-Her-2) or 24JK sarcoma cells (24JK) or medium alone, in the presence of vehicle control or the PTPN2 inhibitor, compound 8 (described herein). T cell activation was assessed by monitoring for secreted IFNγ by ELISA (Mouse IFNγELISA Set, BD OptEIA™) according to the supplier's specifications. Tests were performed in triplicates (±SD).
Her-2-specific CAR T cells were incubated with Her-2 expressing 24JK sarcoma cells (24JK-Her-2) or 24JK sarcoma cells (24JK) or medium alone, in the presence of vehicle control or the PTPN2 inhibitor, compound 8 (described herein). T cell activation was assessed by monitoring for secreted IFNγ by ELISA (Mouse IFNγELISA Set, BD OptEIA™) according to the supplier's specifications. Tests were performed in triplicates (±SD).

| Compound | TCR-mediated T cell responses (CD8+ T cell number) (murine CD8+ T cells) | polyclonal CD8+ T cell activation (CD44, CD62L, CD25, CD69 surface levels, MFI) [1] | TCR-mediated T cell activation (CD69, CD154) [2] | TCR-mediated T cell proliferation [3] | activated phenotype of naive CD8+ T cells (CD44, CD69, CD25, CD62L MFI) [4] | tumour-specific activation of Her-2 specific CAR T cells (secreted IFNγ) [5] |
| --- | --- | --- | --- | --- | --- | --- |
| AAGCCCAUAUGAUCACAGUCG (listed as RNA, chemistry not given here) [PTPN2 siRNA, siRNA used to knock down Ptpn2 transiently in primary murine T cells (Dharmacon)] | dose response increase in cell number |  |  |  |  |  |
| CCc1ccc(C(=O)NCCCCC(NC(=O)C(Cc2ccc(C(F)(F)P(=O)(O)O)cc2)NC(=O)C(Cc2ccccc2)NC(=O)COC2CC(C)CCC2C(C)C)C(N)=O)cc1 (stereo not drawn) [compound 8] |  | enhances polyclonal CD8^+ T cell activation ex vivo | enhanced TCR-mediated T cell activation | enhanced TCR-mediated T cell proliferation | stimulates naive CD8+ T cells to an activated phenotype | enhances the tumour-specific activation of Her-2 specific CAR T cells ex vivo |
